Each block holds one compound with its values, some of them ahead of it.
Tests used:
[1] = system: rats with SU-5416/hypoxia-induced PAH; test: SU-5416/hypoxia-induced PAH, prevention study with eplerenone; type: in vivo, rat; conditions: 21 days
Method: (§1) Sections were stained with a Gomori's Trichrome Staining Kit according to the manufacturer's instruction (Fischer Scientific). Image J™ software (NIH) was used to measure the per cent perivascular collagen deposition of muscularized arterioles with a diameter of 20-50 μm by subtracting the area of the lesser curvature from the greater curvature and dividing by the lesser curvature×100. Collagen was also assessed in tissue sections using Picrosirius Red Stain Kit according to the manufacturer's instruction (Polysciences). Lung sections were visualized under polarized light using an Olympus BX51™ microscope and images were acquired by the Picture Taker™ software package.
(§2) Right heart catheterization. An incision was made in the anterior triangle of the right neck, and a dissection was performed to expose the right internal jugular vein. A 0.04×0.023 in.-sized polyvinylchloridine catheter with a curved end was flushed with heparinized saline and connected to a Grass pressure transducer and Grass model 79 polygraph. A 4.0-proline suture was used to achieve hemostasis at the distal end of the jugular vein prior to insertion of the catheter. The tube was advanced and RV systolic pressure was recorded, which was assumed to be equal to PASP in the setting of a normal pulmonic valve.^3 All right heart catheterizations were performed within 10 min of echocardiography and both procedures were completed within 30 min.
(§3) Left heart catheterization and hemodynamics. Following completion of the right heart catheterization, a deep neck dissection was performed to identify the right carotid artery. Without disrupting the carotid sinus or vagus nerve, a cross-clamp was applied to the proximal and distal aspects of the carotid artery. A high fidelity Millar catheter (Millar Instruments, Inc.) was inserted into the carotid artery, the distal clamp was released, and the catheter was advanced past the aortic arch to record central aortic blood pressure. The catheter was then advanced across the aortic valve and left ventricular end-diastolic pressure (LVEDP) were recorded. Cardiac index (CI) was derived from pressure-volume loop analysis as described previously.^5 The pulmonary vascular resistance index was calculated as [(mean pulmonary artery pressure-LVEDP)/CI)] and systemic vascular resistance index was calculated as [(mean arterial pressure-mean right atrial pressure)/CI].

[2] = molecular target: T1, ETB cysteinyl thiols (region containing Cys405) (Homo sapiens, UniProt P24530); test: Western analysis to detect ETB disulfide bond formation in HPAECs; type: cell-based; conditions: aldosterone 10^−7 mol/L 24 h or H2O2 200 μmol/L 20 min
T1 construct: endogenous in cells; host or cells: HPAECs (Lonza)
T1 sequence (P24530 27-442): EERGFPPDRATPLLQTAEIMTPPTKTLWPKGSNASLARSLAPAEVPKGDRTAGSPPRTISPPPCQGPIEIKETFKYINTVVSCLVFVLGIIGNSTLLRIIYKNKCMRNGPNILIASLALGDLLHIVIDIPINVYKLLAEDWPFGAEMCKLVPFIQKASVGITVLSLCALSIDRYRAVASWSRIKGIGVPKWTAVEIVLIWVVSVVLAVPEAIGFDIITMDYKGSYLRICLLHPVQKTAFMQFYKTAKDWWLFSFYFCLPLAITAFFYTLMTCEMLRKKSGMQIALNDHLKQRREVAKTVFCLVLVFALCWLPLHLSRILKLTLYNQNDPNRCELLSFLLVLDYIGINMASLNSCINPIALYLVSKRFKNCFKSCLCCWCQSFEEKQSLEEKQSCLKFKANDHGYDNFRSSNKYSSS
Method: Western analysis to detect ETB disfulfide bond formation. Western analysis to detect ETB disulfide bond formation was performed as described previously.^7 Briefly, protein extracts from cells were lysed in alkylating buffer containing 0.1 M Tris-HCL, pH 6.8, 1% SDS, 100 mM iodoacetamide, and 100 mM N-ethylmaleimide, and sonicated on ice for 5 min followed by a 30-min incubation at 25° C. Alkylated proteins were then precipitated with acetone. Proteins were resuspended in 50 μl of 0.1 M Tris-HCl, pH 7.4, 1% SDS; and disulfides were reduced with 5 mM tris(2-carboxyethyl)phosphine hydrochloride (TCEP). Following a 20-min incubation at 25° C., TCEP was removed with a Micro Bio-Spin™ column 6 (Bio-Rad), and 1% SDS was added to the eluant. The cysteines previously participating in a disulfide bond, now reduced, were labeled with 1 mM polyethylene glycol-conjugated maleimide (molecular mass 10 kDa) (Fluka). After a 1-h incubation at 25° C., proteins were precipitated with acetone, resuspended in 50 μl of non-reducing SDS electrophoresis buffer, and boiled for 10 min. Protein samples were then size-fractionated electrophoretically using SDS-PAGE, and transferred to a polyvinylidene fluoride membrane. […]

[3] = system: ETB-dependent NO. generation in HPAECs; test: NO. metabolites (NO2−, NO3−) in ET-1-stimulated HPAECs; type: cell-based, human
Method: Cell culture and treatments. Human pulmonary artery endothelial cells (HPAECs) (Lonza) (male donors) were grown to confluence using phenol-free EGM-2 medium supplemented with 5% fetal bovine serum at 37° C., 5% CO2. Cells were passaged twice-weekly using 0.5% trypsin/EDTA, and experiments were performed on cells from passages 4-10. Aldosterone (Steraloids) and ET-1 (1-100 nM) (Sigma-Aldrich) were dissolved in dimethylsufloxide (10 nmol/L) and deoxygenated water, respectively, which served as vehicle controls. Cells were treated with aldosterone (10^−−10^−7 mol/L) for 24 h and in selected experiments co-incubated with the mineralocorticoid receptor inhibitor spironolactone (10 μM/l) (Sigma-Aldrich).

HPAECs [4] = test: Amplex Red assay of hydrogen peroxide levels in HPAECs; type: cell-based, human; conditions: aldosterone-treated HPAECs coincubated with spironolactone (10 μM), 24 h; n=3
Method: Human pulmonary artery endothelial cells (HPAECs) (Lonza) (male donors) were grown to confluence using phenol-free EGM-2 medium supplemented with 5% fetal bovine serum at 37° C., 5% CO2. Cells were passaged twice-weekly using 0.5% trypsin/EDTA, and experiments were performed on cells from passages 4-10. Aldosterone (Steraloids) and ET-1 (1-100 nM) (Sigma-Aldrich) were dissolved in dimethylsufloxide (10 nmol/L) and deoxygenated water, respectively, which served as vehicle controls. Cells were treated with aldosterone (10^−−10^−7 mol/L) for 24 h and in selected experiments co-incubated with the mineralocorticoid receptor inhibitor spironolactone (10 μM/l) (Sigma-Aldrich).

[5] = system: Sprague-Dawley rats with MCT-induced PAH; test: MCT model of PAH, prevention study (spironolactone started at time of MCT injection); type: in vivo, rat
Method: (§4) Animal model of PAH. Male Sprague-Dawley rats (age 12-14 weeks; Charles River Laboratories) were handled in accordance with US National Institutes of Health guidelines, and all procedures were approved by the local committee at Brigham and Women's Hospital, Harvard Medical School. All surgeries were performed under ketamine/xylazine anesthesia. For the monocrotaline (MCT) model of PAH, rats were fed standard chow and treated with a 0.5 ml intraperitoneal injection of MCT (50 mg/ml) (Sigma-Aldrich) or 0.9% saline as control. Rats were randomized to spironolactone (25 mg/kg/d) (Henry Schein) or vehicle added to the drinking water. For the prevention study, treatment with spironolactone began immediately following administration of MCT and continued for 23-25 days until hemodynamic and tissue analyses were performed. For the reversal study, a second experiment was performed in which rats were randomized to spironolactone or vehicle that was initiated 14 days following the administration of MCT and continued until hemodynamic and tissue analyses were performed 10 days later.
(§5) Aldosterone and ET-1 levels. […] In selected experiments, cells were pre-treated for 6 h with BQ-788 (1.5 μM) (Sigma-Aldrich) to inhibit the ETB receptor. Aldosterone levels were measured in the medium of cells grown in phenol-free EGM-2 medium supplemented with charcoal-stripped serum, by enzyme immunoassay according to the manufacturer's instructions (Cayman). Results were standardized to cell protein concentration. Levels of aldosterone and ET-1 from plasma and whole lung tissue were measured by enzyme immunoassay according to the manufacturer's instructions (Cayman).
NO. metabolites. Nitrite (NO2^−) and nitrate (NO3^−) were measured in cell culture medium containing 2% fetal bovine serum and L-arginine (1 mmol/l) (Sigma-Aldrich) by 1(H)-naphthotriazole fluorescence (Cayman) as previously reported.^1 To measure NO2^− levels in whole lung tissue, lung specimens were harvested from rats and snap frozen in liquid nitrogen. Samples were thawed, homogenized in PBS (pH 7.4), and centrifuged at 14,000×g at 4° C. for 20 min. The supernatant was ultrafiltered using a 30 kDa molecular weight filter (Millpore), and the eluant was used to measure NO2^− levels according to manufacturer's instructions (Cayman).
Lung tissue histology. Rat lung vessels were perfused with saline through the pulmonary artery and inflated with 10% phosphate-buffered formalin at a pressure of 20 cm H2O through the trachea as described previously.^2 After fixation for 24 h at 4° C., the lung tissue was processed and embedded in paraffin using a Hypercenter™ XP System and Embedding Center (Shandon, Pittsburg, Pa.). The paraffin-embedded lung tissue was cut into 5-μm sections. Hematoxylin and eosin staining was performed according to methods published previously.^3 The 3,3′-diaminobenzidine substrate method was used for smooth muscle α-actin immunohistochemical staining. The number of muscularized arteries with a diameter of 20-50 μm located distal to terminal bronchioles were counted in 20 consecutive fields (100×) per section,^2 and the cross-sectional area was assessed using Image J™ software (NIH).
as §1
Echocardiography. […]

[6] = system: Sprague-Dawley rats with MCT-induced PAH; test: MCT model of PAH, reversal study (spironolactone started 14 days after MCT); type: in vivo, rat
Method: as §4, §1, §2, §3

Sprague-Dawley rats = test: Monocrotaline (MCT) induction of PAH versus vehicle control; type: in vivo, rat
Method: as §4, §5
Echocardiography. Transthoracic two-dimensional, M-mode, and Doppler imaging were performed in rats using a Vevo 2010 ultrasonographic system with a 15-MHz transducer. M-mode and Doppler tracings were acquired at a sweep speed of 200 mm/s following optimization of endocardial visualization and spectral display of Doppler profiles as described previously.^3 M-mode measurements of the right ventricular free-wall thickness were measured in the parasternal short-axis view just below the levels of the aortic valve, as described previously and in accordance to recommendations on M-mode measurement of the RV by the American Society of Echocardiography.^4 All studies were performed by a cardiologist and experienced sonographer who was blinded to the treatment group and was responsible for image analysis.
as §2

HPAECs [7] = test: Aldosterone levels in HPAEC culture medium by enzyme immunoassay; type: cell-based, human; conditions: pioglitazone 50 μM, 24 h
[8] = spironolactone 25 mg/kg/d in MCT-PAH rats
[9] = spironolactone 25 mg/kg/d from day 14
[10] = rats with MCT-induced PAH vs vehicle
[11] = rats with MCT-induced PAH vs vehicle, 25 days

CI ([1]; eplerenone in chow): without significantly influencing | LVEDP ([1]; eplerenone in chow): without significantly influencing | MAP ([1]; eplerenone in chow): without significantly influencing | SVRi ([1]; eplerenone in chow): without significantly influencing
Compound: COC(=O)[C@@H]1CC2=CC(=O)CC[C@]2(C)[C@@]23O[C@@H]2C[C@@]2(C)[C@@H](CC[C@@]24CCC(=O)O4)[C@H]13 [eplerenone]
decrease in perivascular collagen ([1]; eplerenone 0.6 mg/1 gm standard chow, n=5): 67% | body weight ([1]; eplerenone in chow): without significantly influencing | heart rate ([1]; eplerenone in chow): without significantly influencing | PVRi ([1]; eplerenone in chow, vs SU-5416/hypoxia 64.6±21.4, p=0.18, n=3-4): 43.9±8.7 mm Hg*min*gm/ml | PASP ([1]; eplerenone in chow, vs SU-5416/hypoxia 80.5±4.9, p=0.048, n=5): 61.5±6.5 mm Hg

Compound: OO [H2O2, hydrogen peroxide]
ETB disulfide bond formation (bands at 70 kDa and 90 kDa) [2]: de novo formation of one or two disulfide bonds

LVEDP [6, 9]: without changes | MAP [6, 9]: without changes | cardiac index (CI) [6, 9]: without changes | indexed systemic vascular resistance (SVRi) [6, 9]: without changes
Compound: CC(=O)S[C@@H]1CC2=CC(=O)CC[C@]2(C)[C@H]2CC[C@@]3(C)[C@@H](CC[C@@]34CCC(=O)O4)[C@H]12 [spironolactone]
NO2^− levels in aldosterone-treated, ET-1-stimulated cells ([3]; coincubation with spironolactone 10 μM, HPAECs): restored | increase in NOx levels ([3]; spironolactone coincubation in aldosterone-treated cells stimulated with ET-1, n=3): 87% | abrogation of aldosterone-induced H2O2 accumulation (HPAECs [4]): 56% | body weight [5, 8]: without significantly decreasing plasma ET-1 levels or influencing | left ventricular end-diastolic pressure (LVEDP) [5, 8]: without significantly decreasing plasma ET-1 levels or influencing | mean arterial pressure (MAP) [5, 8]: without significantly decreasing plasma ET-1 levels or influencing | plasma ET-1 levels [5, 8]: without significantly decreasing | PASP ([5]; spironolactone 25 mg/kg/d in drinking water, 23-25 days, vs V-treated PAH 89.3±5.2, n=6): 69.5±5.4 mm Hg | decrease in perivascular collagen deposition (Gomori's trichrome) ([5]; spironolactone 25 mg/kg/d vs V-treated rats with PAH, n=4): 77% | RV weight ([5]; spironolactone 25 mg/kg/d, vs V-treated PAH 0.43±0.07, p=0.32, n=5): 0.35±0.04 RV weight/LV septum weight | RV free-wall thickness ([5]; spironolactone 25 mg/kg/d, vs V-treated PAH 1.07±0.05, n=6): 0.86±0.03 mm | PAAT ([5]; spironolactone 25 mg/kg/d, vs V-treated PAH 14.1±1.2, n=6): 22.3 ± 2.2 ms | cross-sectional luminal area of vessels ([5]; spironolactone 25 mg/kg/d, vs V-treated PAH 14.3±0.7, n=5): 35.4±1.9 % cross sectional area | number of α-actin-stained muscularized distal pulmonary arterioles ([5]; spironolactone 25 mg/kg/d, vs V-treated PAH 77.7±6.3, n=5): 59.7±0.4 muscularized pulmonary arterioles/20 high powered fields | nitrite (NO2^−) in lung tissue specimens ([5]; spironolactone 25 mg/kg/d, vs V-treated PAH 506±86, n=4): 759±55 μM/μg protein | heart rate [6, 9]: without changes | indexed pulmonary vascular resistance (PVRi) ([6]; spironolactone 25 mg/kg/d from day 14, vs V-treated PAH 35.9±3.2, n=4): 21.5±3.2 mm Hg*min*g/ml | PASP ([6]; spironolactone 25 mg/kg/d from day 14, vs V-treated PAH 60.3±5.2, n=6): 39.5±4.1 mm Hg | decrease in levels of perivascular collagen ([6]; spironolactone 25 mg/kg/d from day 14 for 10 days vs V-treated PAH, n=6): 71%

Compound: C[C@H]1C(=O)O[C@@H]2CCN3CC=C(COC(=O)[C@](C)(O)[C@]1(C)O)[C@H]23 [MCT, monocrotaline]
increase in plasma ET-1 levels (Sprague-Dawley rats; MCT rat model of PAH): 3 fold | right ventricular (RV) free-wall thickness (Sprague-Dawley rats; MCT-treated rats vs vehicle control 0.58±0.05, n=6): 1.1±0.05 mm | pulmonary artery systolic pressure (PASP) (Sprague-Dawley rats; MCT-treated rats vs vehicle control 28.3±2.7, right heart catheterization, n=6): 89.3±5.3 mm Hg | pulmonary artery (PA) flow acceleration time (PAAT) (Sprague-Dawley rats; MCT-treated rats vs vehicle control 35.4±2.6, echocardiography, n=6): 14.1 ± 1.2 ms | increase in aldosterone levels in lung tissue (Sprague-Dawley rats; [10]): 172% | increase in aldosterone levels in plasma (Sprague-Dawley rats; [10]): 406% | increase in ET-1 levels in lung homogenates (Sprague-Dawley rats; [11]): 174% | increase in ET-1 levels in plasma (Sprague-Dawley rats; [11]): 286%

Compound: CCc1ccc(CCOc2ccc(CC3SC(=O)NC3=O)cc2)nc1 (stereo not drawn) [pioglitazone]
increase in aldosterone levels compared to V (HPAECs [7]): 365%

From US9605047B2, “Compositions and methods for treating hypertension” (The Brigham and Women's Hospital, Inc., priority 2012, dated 2017)
